This is an account of results in US12527788B2, “Defining RNA-small molecule affinity landscapes enables design of a small molecule inhibitor of an oncogenic non-coding RNA” (University of Florida Research Foundation, Incorporated, priority 2017, dated 2026).

Where only a bound is given, the exact number is not on record here.

One assay deals with AT-rich DNA hairpin. Briefly: In solution fluorescence-based binding affinity measurement. An excerpt:
It has been difficult to identify compounds that are heterocyclic in nature that selectively recognize RNA over DNA.^5 Thus, to further gain insight into the selectivity of our RNA motif-small molecule interactions, we compared the measured affinities for selected RNA motifs to the affinities of the ligands for an AT-rich DNA hairpin, a common target of small molecules similar to those shown in FIG. 1. […] This alteration reduces DNA affinity because key stacking and hydrogen bonding interactions are not possible. […] Thus, the interactions selected via 2DCS are RNA-selective.
(§1) Binding Affinity Measurements: An in solution, fluorescence-based assay was used to determine binding affinities by monitoring the change in fluorescence intensity of 1-FL (or 2-FL/3-FL/4-FL) as a function of RNA concentration as described previously.^18 Briefly, the RNA of interest was folded in 1× Folding Buffer (8 mM Na2HPO4, pH 7.0, 185 mM NaCl and 1 mM EDTA) by heating at 60° C. for 5 min followed by slowly cooling to room temperature on the bench top. Then, the FL-conjugated compound was added into the RNA solution to a final concentration of 100 nM. Serial dilutions were then completed using 1× Folding Buffer supplemented with 100 nM FL-conjugated compound. The solutions were incubated at room temperature for 30 min and then transferred to a well of a black 384-well plate. Fluorescence intensity was measured using a Bio-Tek FL×800 plate reader with an excitation wavelength of 485/20 nm and an emission wavelength of 528/20 nm. The change in fluorescence intensity as a function of the concentration of RNA was fit to equation 3:^9 I=I0+0.5 Δε{([FL]0+[RNA]0 +Kd)−(([FL]0+[RNA]0+Kd)^2−4[FL]0[RNA]0)^1/2} (3) where I is the observed fluorescence intensity; I0 is the fluorescence intensity in the absence of RNA; Δε is the difference between the fluorescence intensity in the absence of RNA and in the presence of infinite RNA concentration; [FL]0 is the concentration of compound; [RNA]0 is the concentration of the selected RNA; and Kd is the dissociation constant.

Assay [1] addresses RNAC (U bulge mutated to an AU pair). The assay is described as follows: Fluorescence-based binding affinity measurement. The procedure: FIG. 7: Secondary structures of the nucleic acids to which the binding of small molecule 4 was assessed. […] RNA1 contains the U bulge present in the Dicer processing site common to miR-17, -18a and -20a. RNA2 contains the A bulge that is present in miR-18a. RNA3 contains the G bulge present in miR-17 and miR-20a. Binding affinities (Kd's) are indicated in parentheses and are reported in micromolar.
(§2) Mutation of the U bulge to an AU pair (RNAC) eliminates binding (Kd>100 μM).
Binding Affinity Measurements: An in solution, fluorescence-based assay was used to determine binding affinities by monitoring the change in fluorescence intensity of 1-FL (or 2-FL/3-FL/4-FL) as a function of RNA concentration as described previously.^18 Briefly, the RNA of interest was folded in 1× Folding Buffer (8 mM Na2HPO4, pH 7.0, 185 mM NaCl and 1 mM EDTA) by heating at 60° C. for 5 min followed by slowly cooling to room temperature on the bench top. Then, the FL-conjugated compound was added into the RNA solution to a final concentration of 100 nM. Serial dilutions were then completed using 1× Folding Buffer supplemented with 100 nM FL-conjugated compound. The solutions were incubated at room temperature for 30 min and then transferred to a well of a black 384-well plate. […]

The test system of assay [2] is motif in the Dicer site of miR-19a. The assay is described as follows: Fluorescence-based binding affinity measurement. The note with it: miR-19a Dicer site motif. The arrangement: species or system human. On the procedure:
as §2, §1

Assay [3] concerns motif in the Dicer site of miR-19b. Briefly: Fluorescence-based binding affinity measurement. The arrangement: species or system human. The note with it: miR-19b Dicer site motif. The procedure: as §2, §1
The subject of assay [4] is motif in the Dicer site of miR-92a. Briefly: Fluorescence-based binding affinity measurement. The note with it: miR-92a Dicer site motif. On the set-up: species or system human. The procedure:
as §2, §1

Another assay deals with miR-19a. Briefly: RT-qPCR of mature miRNA levels in DU145 cells. The class given is cell-based, human. The procedure: (§3) In particular, the mature levels of each miRNA in the cluster were studied by RT-qPCR. In agreement with our in vitro Dicer processing studies (FIG. 8A and Figures S-58-S-62), 4 decreases the amount of mature miR-17, -18a, and -20a at low micromolar concentrations with an IC50 of ˜10 µM, but has no effect on miR-19a, -19b, and -92a (FIG. 8B).
(§4) Cell Culture: DU145 cells were cultured in growth medium (Roswell Park Memorial Institute medium (RPMI) supplemented with 10% fetal bovine serum (FBS)) at 37° C. and 5% CO2
(§5) Total RNA was extracted from cells using a Quick-RNA Miniprep Kit (Zymo Research) per the manufacturer's protocol. Approximately 200 ng of total RNA was used in reverse transcription (RT) reactions, which were completed using a miScript II RT kit (Qiagen) per the manufacturer's protocol. RT-qPCR was performed on a 7900HT Fast Real Time PCR System (Applied Biosystem) using power SYBR Green Master Mix (Applied Biosystems). All primer sets were purchased from Integrated DNA Technologies, Inc. (IDT) or Eurofins (Table S1). The expression levels of mature miRNAs were normalized to U6 small nuclear RNA or 18s rRNA.

The test system of the next assay is miR-19b. The assay is described as follows: RT-qPCR of mature miRNA levels in DU145 cells. The class given is cell-based, human. On the procedure: as §3, §4, §5
Another assay deals with miR-92a. Briefly: RT-qPCR of mature miRNA levels in DU145 cells. The class given is cell-based, human. On the procedure:
as §3, §4, §5

`CN1CCN(c2ccc(-c3ccc4nc(-c5cc(C(C)(C)C)c(OCCCC(=O)NCCCN=[N+]=[N-])c(C(C)(C)C)c5)[nH]c4c3)cc2)CC1` [Compound 4]: the Kd (at AT-rich DNA hairpin; in assay [1]) was more than 100 µM in each case. Further, the Saturable binding result in assay [2], in assay [3] and in assay [4] was “No saturable binding” throughout. Further, the “Effect on mature miRNA level” value with miR-19a, with miR-19b and in the assay with miR-92a was “no effect” in each case.
